Measured values as given in patent US8642774B2, “Compounds” (Boehringer Ingelheim International GmbH, priority 2011, dated 2014).

Molecular target: T1, human recombinant mGluR5 (Homo sapiens, UniProt P41594)
T1 construct: expressed in transfected cells; host or cells: HEK 293 cell line, cultured with tetracycline, hygromycin and geneticin; tetracycline is withdrawn 3-7 days before the assay
Assay: positive modulation of mGluR5, calcium based FLIPR assay
Type: cell-based
Settings: EC50 of the modulation; HEK 293 cell line expressing human recombinant mGluR5; peak height of Ca fluorescence signal after glutamate at approx. 5% basal stimulation; read-out: EC50
Outline: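 HEK 293 cells expressing human recombinant mGluR5, tetracycline-free before assay, loaded with Calcium-4 dye in Ringer solution pH 7.4. Compounds (1% DMSO final) added for 5 min, then glutamate at about 5% of maximal effect; FLIPR peak Ca signal scaled between 1% DMSO (100%) and 10 μM CDPPB (200%) controls, EC50 by nonlinear regression.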

T1 sequence (P41594 21-1212): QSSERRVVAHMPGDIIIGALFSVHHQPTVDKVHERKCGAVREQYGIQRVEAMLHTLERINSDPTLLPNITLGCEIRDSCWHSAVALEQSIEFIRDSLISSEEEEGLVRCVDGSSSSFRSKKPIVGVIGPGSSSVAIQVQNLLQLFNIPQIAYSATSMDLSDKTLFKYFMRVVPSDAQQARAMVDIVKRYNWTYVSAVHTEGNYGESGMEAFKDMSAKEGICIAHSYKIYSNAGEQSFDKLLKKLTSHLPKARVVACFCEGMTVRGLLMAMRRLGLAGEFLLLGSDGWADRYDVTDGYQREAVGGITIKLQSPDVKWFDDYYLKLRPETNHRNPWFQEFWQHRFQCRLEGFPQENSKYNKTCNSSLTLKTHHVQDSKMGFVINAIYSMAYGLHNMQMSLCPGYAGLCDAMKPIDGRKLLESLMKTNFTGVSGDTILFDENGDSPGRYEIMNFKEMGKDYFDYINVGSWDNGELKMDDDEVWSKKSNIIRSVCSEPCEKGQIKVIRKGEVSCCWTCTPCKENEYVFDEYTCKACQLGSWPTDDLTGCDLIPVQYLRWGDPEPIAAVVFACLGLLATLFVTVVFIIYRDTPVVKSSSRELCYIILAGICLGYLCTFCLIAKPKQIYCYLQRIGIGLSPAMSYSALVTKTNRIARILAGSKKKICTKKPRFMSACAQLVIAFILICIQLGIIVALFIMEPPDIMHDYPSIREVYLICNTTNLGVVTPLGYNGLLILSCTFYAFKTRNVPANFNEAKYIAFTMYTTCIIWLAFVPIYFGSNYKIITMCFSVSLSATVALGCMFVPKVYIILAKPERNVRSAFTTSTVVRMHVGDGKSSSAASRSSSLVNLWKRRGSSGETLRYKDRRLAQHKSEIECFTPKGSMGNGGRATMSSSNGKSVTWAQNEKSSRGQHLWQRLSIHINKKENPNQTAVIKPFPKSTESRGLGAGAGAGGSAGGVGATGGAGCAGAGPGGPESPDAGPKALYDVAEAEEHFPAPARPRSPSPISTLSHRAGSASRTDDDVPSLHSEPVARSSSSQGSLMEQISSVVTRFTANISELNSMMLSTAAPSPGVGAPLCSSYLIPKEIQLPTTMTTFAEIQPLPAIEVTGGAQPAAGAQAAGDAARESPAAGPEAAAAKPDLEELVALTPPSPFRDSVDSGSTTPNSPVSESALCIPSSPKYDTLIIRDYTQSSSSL

SMILES | EC50
COc1cc(-c2nc(-c3ccc(F)cc3)n(CC(=O)N3CCc4nc(N)sc4CC3)n2)ccc1F [Example 7.03.088.] | 60 nM
COc1cccc(N2CCN(C(=O)Cn3nc(-c4ccc(F)cc4)nc3-c3ccc(F)cc3)CC2=O)c1 [Example 7.01.03.] | 283 nM
CCCCc1nc(-c2ccc(F)c(C)c2)nn1CC(=O)N1CCN(c2cccc(OC)c2)C(=O)C1 [Example 7.03.100.] | 302 nM
COc1cccc(C2=CCN(C(=O)Cn3nc(-c4ccc(F)cc4)nc3-c3ccc(F)cc3)CC2)c1 [Example 7.03.021.] | 228 nM
Cc1cnc(C2CCN(C(=O)Cn3nc(-c4ccc(F)cc4)nc3-c3ccc(F)cc3)CC2)o1 [Example 7.03.035.] | 170 nM
Nc1nc2c(s1)CN(C(=O)Cn1nc(-c3ccc(F)cc3)nc1-c1ccc(F)cc1)CC2 [Example 7.02.42.] | 1240 nM
COc1cc(-c2nc(-c3ccc(F)cc3)nn2CC(=O)N2CCc3nc(C)sc3CC2)ccc1F [Example 7.03.069.] | 574 nM
COc1ccc2c(c1)CCN(C(=O)Cn1nc(-c3ccc(F)cc3)nc1-c1ccc(F)cc1)CC2 [Example 7.02.39.] | 279 nM
N#Cc1ccc(Cl)cc1NC1CCN(C(=O)Cn2nc(-c3ccc(F)cc3)nc2-c2ccc(F)cc2)CC1 [Example 7.02.24.] | 560 nM
Cc1cc(-c2nc(-c3ccccc3)n(CC(=O)N3CCc4nc(N)sc4C3)n2)ccc1F [Example 7.02.78.] | 274 nM
O=C(Cn1nc(-c2ccc(F)cc2)nc1-c1ccc(F)cc1)N1CCN(c2nccs2)CC1 [Example 7.03.048.] | 88 nM
O=C(Cn1nc(-c2ccc(F)cc2)nc1-c1ccc(F)cc1)N1CCc2cc(O)ccc2C1 [Example 7.02.53.] | 229 nM

Continued by falling EC50, values first:

EC50 | SMILES
1830 nM | O=C(Cn1nc(-c2ccc(F)cc2)nc1-c1ccc(F)cc1)N1CCc2c(F)ccc(F)c2C1 [Example 7.02.27.]
1090 nM | COc1ccc2c(c1)CCN(C(=O)Cn1nc(-c3ccc(F)cc3)nc1-c1ccc(F)cc1)C2C (stereo not shown) [Example 7.02.36.]
818 nM | O=C(Cn1nc(-c2ccc(F)cc2)nc1-c1ccc(F)cc1)N1Cc2cn[nH]c2C1 [Example 7.02.04.]
666 nM | COc1cccc2c1CCN(C(=O)Cn1nc(-c3ccc(F)cc3)nc1-c1ccc(F)cc1)C2 [Example 7.02.08.]
518 nM | Nc1ccc2c(c1)CCN(C(=O)Cn1nc(-c3ccc(F)cc3)nc1-c1ccc(F)cc1)CC2 [Example 7.02.26.]
457 nM | CCCc1nc(-c2ccc(F)c(C)c2)nn1CC(=O)N1CCc2nc(C)sc2CC1 [Example 7.03.070.]
323 nM | COc1ccc(-c2nc(-c3ccccc3)n(CC(=O)N3CCc4nc(C)oc4C3)n2)cc1 [Example 7.03.052.]
155 nM | COc1cc2c(cc1OC)CCN(C(=O)Cn1nc(-c3ccc(F)c(C)c3)nc1-c1ccccc1)CC2 [Example 7.02.90.]
117 nM | O=C(Cn1nc(-c2ccc(F)cc2)nc1-c1ccc(F)cc1)N1CCc2ccc(Cl)nc2CC1 [Example 7.03.028.]
95 nM | COc1ccc(-c2nc(-c3ccccc3)n(CC(=O)N3Cc4nc(C)oc4C3)n2)cc1 [Example 7.03.132]
85 nM | Cc1nc2c(s1)CN(C(=O)Cn1nc(-c3ccc(OC(F)F)cc3)nc1-c1ccccc1)C2 [Example 7.03.128]
58.8 nM | Cc1cc(-c2nc(-c3ccccc3)n(CC(=O)N3CCc4ncsc4CC3)n2)ccc1F [Example 7.02.87.]
37 nM | CCc1nc2c(s1)CCN(C(=O)Cn1nc(-c3ccc(F)cc3)nc1-c1ccc(F)cc1)CC2 [Example 7.03.030.]
